What all share (format): functional, cell-based
In one experiment the test system is KB. Kind of experiment: Cytotoxicity against human KB cells by colorimetric method.
The next experiment deals with BC. Kind of experiment: Cytotoxicity against human BC cells by colorimetric method.
A further experiment deals with NCI-H187. Kind of experiment: Cytotoxicity against human NCI-H187 cells by colorimetric method.

Activity and IC50 data for five compounds are collected here from ChEMBL document CHEMBL1151214, “Pentacyclic triterpenoid esters from the fruits of Bruguiera cylindrica” (J Nat Prod, 2004).

In brackets after ≈: the same amount, converted by molar mass. Activity calls are given as the source filed them. The rule behind the calls is not given here.

With `CC1(C)CC[C@]2(C)CC=C3[C@]4(C)CC[C@H]5C(C)(C)[C@H](OC(=O)/C=C/c6ccc(O)cc6)CC[C@]5(C)[C@H]4CC[C@@]3(C)[C@@H]2C1`, the result with KB, with BC and with NCI-H187 was inactive.
Regarding `COc1cc(/C=C\C(=O)O[C@@H]2CC[C@]3(C)[C@H]4CC[C@]5(C)C(=CC[C@@]6(C)CCC(C)(C)C[C@H]65)[C@]4(C)CC[C@H]3C2(C)C)ccc1O`, the result in the experiment with KB and with BC was inactive. Besides, the midpoint of inhibition with NCI-H187, the IC50, lay at 12.2 µg/mL (≈ 20.2 µM).
Regarding `CC1(C)CC[C@]2(C)CC=C3[C@]4(C)CC[C@H]5C(C)(C)[C@H](OC(=O)/C=C\c6ccc(O)cc6)CC[C@]5(C)[C@H]4CC[C@@]3(C)[C@@H]2C1`, the result in the experiment on KB and in the experiment with BC was inactive. In addition, the IC50 – broadly, the midpoint of a concentration-inhibition curve – with NCI-H187 was determined as 20 µg/mL (≈ 34.9 µM).
Turning to `COc1cc(/C=C/C(=O)O[C@@H]2CC[C@]3(C)[C@H]4CC[C@]5(C)C(=CC[C@@]6(C)CCC(C)(C)C[C@H]65)[C@]4(C)CC[C@H]3C2(C)C)ccc1O`, the result with KB, in the experiment on BC and with NCI-H187 was inactive.
For the compound `COc1cc(/C=C/C(=O)O[C@H]2CC[C@]3(C)[C@H]4CC[C@]5(C)C(=CC[C@@]6(C)CCC(C)(C)C[C@H]65)[C@]4(C)CC[C@H]3C2(C)C)ccc1O`, the result with KB, with BC and in the experiment with NCI-H187 was inactive.
